According to US20250147039A1, “Compounds for complexation of rare earth elements and/or s-, p-, d- block metals, their coordination compounds, peptide conjugates, method of their preparation and use thereof” (USTAV ORGANICKE CHEMIE A BIOCHEMIE AV CR V.V.I., priority 2021, published 2025):

Legend:
[1] = Alkali metal dependent formation of 1,5-cz-Lig and 1,4-cz-Lig isomers from Lig at pH 10.2 (Chart 14); assay type: physicochemical; conditions: B: 1 day at 80° C., Borate/(M^I)2CO3 buffer pH 10.2
[2] = Dissociation of chelates in aq. 6.0M HCl at 80° C. (acid decomplexation kinetic inertness) (Chart 17); assay type: physicochemical
[3] = Formation of 1,5-cz-[M(Lig)] from Lig and M^III ions (metal dependent click-zip) (Charts 4, 5); assay type: physicochemical; conditions: MOPS/NaOH buffer pH 7.0, TD728, TD827 in 50% i-PrOH; for conversion to 1,5-cz-[M(Lig)], Y^III: TD714 sum of two diastereoisomers
[4] = Formation of 1,5-cz-[Ln(Lig)] from Lig and Ln^III ions (metal dependent click-zip), MOPS/NaOH buffer pH 7.0, analytical HPLC (Charts 1, 2); conditions: MOPS/NaOH buffer pH 7.0
[5] = visible analyte free precipitate

C#Cc1cccc(CN2CCNCCN(Cc3cccc(CN=[N+]=[N-])n3)CCN(CC(=O)O)CC2)n1 [TD703]
conversion to 1,4-cz-Lig isomer, Cs^I [1]: 20%
conversion to 1,4-cz-Lig isomer, K^I [1]: 20%
conversion to 1,4-cz-Lig isomer, Na^I [1]: 10%
conversion to 1,4-cz-Lig isomer, Rb^I [1]: 20%
conversion to 1,5-cz-Lig isomer, Cs^I [1]: 13%
conversion to 1,5-cz-Lig isomer, K^I [1]: 14%
conversion to 1,5-cz-Lig isomer, Na^I [1]: 75%
conversion to 1,5-cz-Lig isomer, Rb^I [1]: 14%
conversion to 1,4-cz-Lig isomer, Li^I [1, 5]: 14%
conversion to 1,5-cz-Lig isomer, Li^I [1, 5]: 24%

O=C1CN2CCN3CCN(CCN(CC2)Cc2cccc(n2)-c2cnnn2Cc2cccc(n2)C3)CP(=O)(O)[O][Lu][O]1 [TD734]
fraction of intact chelate ([2]; 1 month): 95%
fraction of intact chelate ([2]; 1 week): 98%
fraction of intact chelate ([2]; 1 hour): 100%
fraction of intact chelate ([2]; 1 day): 100%

NCc1nnn2c1-c1cccc(n1)C[N@]1CC[N@]3CC[N@@](CC[N@@](CC1)CC(=O)[O][Lu][O]C(=O)C3)Cc1cc(-c3ccccc3)cc(n1)C2 [TD735]
fraction of intact chelate ([2]; 1 month): 98%
fraction of intact chelate ([2]; 1 week): 99%
fraction of intact chelate ([2]; 1 hour): 100%
fraction of intact chelate ([2]; 1 day): 100%

O=C1C[N@@]2CC[N@]3CC[N@@](CC[N@](CC2)Cc2cccc(n2)-c2cnnn2Cc2cc(-c4ccc(C(=O)O)cc4)cc(n2)C3)CC(=O)[O][Lu][O]1 [TD748]
fraction of intact chelate ([2]; 1 month): 97%
fraction of intact chelate ([2]; 1 week): 100%
fraction of intact chelate ([2]; 1 hour): 100%
fraction of intact chelate ([2]; 1 day): 100%

[N-]=[N+]=NCc1cccc(CN2CCN(CC(=O)O)CCN(Cc3cccc(C#CI)n3)CCN(CC(=O)O)CC2)n1 [TD1204]
conversion to 1,5-cz-[M(Lig)], Sc^III ([3]; 1 week at 80° C.): 16%
conversion to 1,5-cz-[M(Lig)], Y^III ([3]; 1 week at 80° C.): 22%
conversion to 1,5-cz-[M(Lig)], Sc^III ([3]; 1 hour at 80° C.): 0%
conversion to 1,5-cz-[M(Lig)], Y^III ([3]; 1 hour at 80° C.): 3%
conversion to 1,5-cz-[Ln(Lig)], Ce^III ([4]; after 1 week at 80° C.): 0%
conversion to 1,5-cz-[Ln(Lig)], Ce^III ([4]; after 1 hour at 80° C.): 0%
conversion to 1,5-cz-[Ln(Lig)], Dy^III ([4]; after 1 week at 80° C.): 17%
conversion to 1,5-cz-[Ln(Lig)], Dy^III ([4]; after 1 hour at 80° C.): 2%
conversion to 1,5-cz-[Ln(Lig)], Er^III ([4]; after 1 week at 80° C.): 39%
conversion to 1,5-cz-[Ln(Lig)], Er^III ([4]; after 1 hour at 80° C.): 6%
conversion to 1,5-cz-[Ln(Lig)], Eu^III ([4]; after 1 week at 80° C.): 5%
conversion to 1,5-cz-[Ln(Lig)], Eu^III ([4]; after 1 hour at 80° C.): 1%
conversion to 1,5-cz-[Ln(Lig)], Gd^III ([4]; after 1 week at 80° C.): 5%
conversion to 1,5-cz-[Ln(Lig)], Gd^III ([4]; after 1 hour at 80° C.): 1%
conversion to 1,5-cz-[Ln(Lig)], Ho^III ([4]; after 1 week at 80° C.): 23%
conversion to 1,5-cz-[Ln(Lig)], Ho^III ([4]; after 1 hour at 80° C.): 4%
conversion to 1,5-cz-[Ln(Lig)], La^III ([4]; after 1 week at 80° C.): 0%
conversion to 1,5-cz-[Ln(Lig)], La^III ([4]; after 1 hour at 80° C.): 0%
conversion to 1,5-cz-[Ln(Lig)], Lu^III ([4]; after 1 week at 80° C.): 83%
conversion to 1,5-cz-[Ln(Lig)], Lu^III ([4]; after 1 hour at 80° C.): 18%
conversion to 1,5-cz-[Ln(Lig)], Nd^III ([4]; after 1 week at 80° C.): 1%
conversion to 1,5-cz-[Ln(Lig)], Nd^III ([4]; after 1 hour at 80° C.): 0%
conversion to 1,5-cz-[Ln(Lig)], Pr^III ([4]; after 1 week at 80° C.): 0%
conversion to 1,5-cz-[Ln(Lig)], Pr^III ([4]; after 1 hour at 80° C.): 0%
conversion to 1,5-cz-[Ln(Lig)], Sm^III ([4]; after 1 week at 80° C.): 4%
conversion to 1,5-cz-[Ln(Lig)], Sm^III ([4]; after 1 hour at 80° C.): 1%
conversion to 1,5-cz-[Ln(Lig)], Tb^III ([4]; after 1 week at 80° C.): 10%
conversion to 1,5-cz-[Ln(Lig)], Tb^III ([4]; after 1 hour at 80° C.): 2%
conversion to 1,5-cz-[Ln(Lig)], Tm^III ([4]; after 1 week at 80° C.): 62%
conversion to 1,5-cz-[Ln(Lig)], Tm^III ([4]; after 1 hour at 80° C.): 11%
conversion to 1,5-cz-[Ln(Lig)], Yb^III ([4]; after 1 week at 80° C.): 76%
conversion to 1,5-cz-[Ln(Lig)], Yb^III ([4]; after 1 hour at 80° C.): 15%
